Values quoted from earlier work as cited in US20180177744A1, “METHOD OF TREATING PAIN AND […] A HYBRID MIXTURE OF S-KETAMINE AND R-KETAMINE” (priority 2016, published 2018).
Like-named read-outs stand apart in the source and are kept apart here.

Assays:
[1] = mice; versus esketamine
[2] = in vivo
[3] = liquid formulation at 30 mg to 50 mg, intranasal (IN) route
[4] = for anaesthetic potency relative to arketamine (R-isomer): clinically, versus arketamine
[5] = system: phencyclidine binding sites on the NMDA receptors; settings: versus arketamine
[6] = system: dopamine transporters; settings: versus arketamine
[7] = system: sigma receptors
[8] = not given; remark: listed apart in the source

Chain of dopamine transporters (Q01959 whole entry): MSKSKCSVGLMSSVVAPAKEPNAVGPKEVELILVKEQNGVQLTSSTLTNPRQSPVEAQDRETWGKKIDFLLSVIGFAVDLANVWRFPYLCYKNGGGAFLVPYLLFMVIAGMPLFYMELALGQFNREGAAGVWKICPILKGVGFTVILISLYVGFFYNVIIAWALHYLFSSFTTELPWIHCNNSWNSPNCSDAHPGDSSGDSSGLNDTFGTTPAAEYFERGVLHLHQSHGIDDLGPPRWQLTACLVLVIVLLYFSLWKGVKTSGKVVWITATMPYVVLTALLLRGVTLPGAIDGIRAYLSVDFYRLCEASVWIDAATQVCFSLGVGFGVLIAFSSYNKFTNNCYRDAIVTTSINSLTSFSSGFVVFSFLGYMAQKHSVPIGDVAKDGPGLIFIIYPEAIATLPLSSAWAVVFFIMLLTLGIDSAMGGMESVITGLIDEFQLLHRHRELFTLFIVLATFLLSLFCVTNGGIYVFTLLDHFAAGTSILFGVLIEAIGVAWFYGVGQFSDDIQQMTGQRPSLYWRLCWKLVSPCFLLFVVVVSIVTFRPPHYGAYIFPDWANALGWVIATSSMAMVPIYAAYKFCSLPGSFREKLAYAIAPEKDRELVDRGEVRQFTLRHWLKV

Row | SMILES | rapid antidepressant effect [1] | glucose metabolism in the brain [2] | psychotomimetic effects (in vivo) | ability to stop acute and/or breakthrough pain [3] | anaesthetic potency relative to arketamine (R-isomer) [4] | anaesthetic potency relative to arketamine (R-isomer) ([4]; listed as S(+)ketamine) | anesthetic potency relative to racemic ketamine ([4]; versus racemic ketamine) | affinity for the PCP binding site of the NMDA receptor relative to arketamine ([5]; listed as Esketamine) | affinity for the PCP binding site of the NMDA receptor relative to arketamine ([5]; listed as S(+)ketamine) | inhibition of dopamine transporters relative to arketamine [6] | binding to sigma receptors [7] | elimination from the human body [8] | recovery of cerebral functions (after anaesthesia, study persons)
1 | CN[C@@]1(c2ccccc2Cl)CCCCC1=O [arketamine, R(−)-ketamine] | greater and lasted longer than that of esketamine | decreases glucose metabolism in the brain | devoid of psychotomimetic effects | – | – | – | – | – | – | – | – | – | –
2 | CNC1(c2ccccc2Cl)CCCCC1=O (racemic) [racemic ketamine, 2-(2-chlorphenyl)-2-(methylamino)-cyclohexanone] | – | – | – | stop acute and/or breakthrough pain | – | – | – | – | – | – | – | – | –
3 | CN[C@]1(c2ccccc2Cl)CCCCC1=O [esketamine, S(+)-ketamine] | – | increases glucose metabolism in the frontal cortex | – | – | 3-4 times | three to four times | two times | 3-4 times | three to four times greater | eight times more | does not bind significantly | more quickly than arketamine (R(−)-ketamine) or racemic ketamine | more rapid recovery of cerebral functions
